# Assay results as given in article PMC11965977, “Selective Antiproliferative and Apoptotic Effects of 2,6‐Diketopiperazines on MDA‐MB‐231 Triple‐Negative Breast Cancer” (Chemical Biology & Drug Design, 2025).
# Assays:
# Assay type in all cases: cell-based
# [1] = system: MDA‐MB‐231 triple‐negative breast cancer cells; test: Antiproliferative activity by MTT assay on MDA‐MB‐231 cell line; conditions: Homo sapiens, 24 h treatment, 1% DMSO, mean ± standard deviation of three separate determinations, read-out: IC50 of inhibitory activity on MDA‐MB‐231 triple‐negative breast cancer cells
# Procedure: The antiproliferative activity of 2,6‐diketopiperazines 1, stereoisomers (S)‐2a‐14a, and (R)‐2b‐4b, 6b‐8b, and 11b‐14b was evaluated by the MTT assay on the MDA‐MB‐231 cell line using TSA as positive control at 50 μM. […] Compounds 1 and both (S) and (R) enantiomers reveal differences in their inhibitory effects.
# (§1) Cell lines of the MDA‐MB‐231 of TNBC and VERO from healthy kidney cells used in this work were donated by ‘National Institute of Cancerology of the Ministry of Health’ from Mexico. MDA‐MB‐231 and Vero cells preserved at −70°C in DMEM F12 medium Gibco, 10% FBS, 5% DMSO, and 5% glycerol were thawed at 37°C and resuspended in DMEM F12 medium, supplemented with 10% FBS and antibiotic (penicillin 100 UI/mL, streptomycin 100 μg/mL and amphotericin 250 μg/mL) and then centrifuged at 2000 rpm for 10 min. The supernatant was removed, and the cells were resuspended in DMEM F12 medium, supplemented with 10% FBS and antibiotic, seeded in 25 cm^2 culture flasks Corning, and incubated at 37°C with 5% CO2 until at least 90% confluence was reached.
# (§2) The MTT assay was used to measure metabolically active cells. Cells were seeded into 96‐well microtiter plates Corning at […] in 100 μL of DMEM‐F12 medium supplemented with 10% FBS and antibiotic Gibco (penicillin 100 IU/mL, streptomycin 100 μg/mL and amphotericin 250 μg/mL). After reaching confluence, cells were treated for 24 h with compounds 1, (S)‐2–14 and (R)‐2–4, 6–8, 11–14 stereoisomers, at concentrations of […], 0.00229, 0.0073, 0.0243, 0.081, 0.27, 0.9, 3.0, 10.0, and 12.0 mM at 1% DMSO, with compounds 1, (S)‐2a, ‐4a, and ‐5a at concentrations of 0.00066, 0.00229, 0.0073, 0.0243, 0.081, 0.27, 0.9, 3.0,10.0, and 12 mM at 1% DMSO, using DMSO 1% in DMEM F12 as the negative control and TSA as the positive control at 50 μM (Sanaei and Kavoosi [2020]). Post‐treatment, cell viability was measured by the conventional MTT dye‐reduction assay. Thus, 20 μL of MTT reagent (5 mg/mL) in PBS 1X was added to each well and incubated at 37 °C for 4 h. Viable cells with active mitochondria reduced the MTT to an insoluble purple formazan precipitate that was solubilized with the subsequent addition of 50 μL of DMSO. The formazan dye was measured spectrophotometrically using a microplate reader Molecular Devices. The cytotoxic impact of each treatment was quantified by determining cell viability as a percentage relative to untreated control cells, referred to as the percentage of control. This is calculated using the formula: [(A595 or A570 nm reading of treated cells)/(A595 or A570 nm reading of untreated cells)] × 100 (Mosmann [1983]; Plumb [1999]). All assays were performed in triplicate. Cell proliferation percentages relative to growth control cells were calculated, and inhibitory concentration 50 (IC50) values were calculated using a regression analysis of the concentration/antiproliferative activity ratio and analyzed using the statistical package prism (Graph‐Pad Software, San Diego, CA, USA).
# MDA‐MB‐231 cell line = test: Apoptotic induction by Annexin V‐FITC/7AAD flow cytometry on MDA‐MB‐231 cell line; conditions: MDA‐MB‐231, compound at its IC50 concentration
# Text: This work presents the apoptotic induction of the 2,6‐DKPs 1, (S)‐stereoisomers 2a to 6a derived from Gly, Ala, Val, Leu, Ile, and Pro α‐amino acids, respectively; as well as 9a to 14a derived from Tyr, Tyr (where the OH group is protected with an acetamide group), Ser, Thr, Met, and Trp α‐amino acids, respectively on the MDA‐MB‐231 cell line by flow cytometry. In this assay, 1% DMSO was used as a negative control and TSA as a positive control (Figure 2). The inhibition of proliferation may be due, among other mechanisms, to arrest in the cell cycle, and/or to an induction of cell death. In the second case, it is important to differentiate whether this death is necrotic inflammatory or apoptotic non‐inflammatory, which is desirable for anti‐cancer agents. […]
# FIGURE 5 Flow Cytometry Analysis Strategy. […] A total of 5000/seg events were analyzed for each group.
# Assays were performed using the commercial kit Annexin V labeled with the fluorochrome fluorescein isothiocyanate (FITC) BD Biosciences. […] After incubation time, the quantification of MDA‐MB‐231 cells was performed by flow cytometry with a FITC and 7AAD signal detector (FL1) and (FL3) on a FACS aria (Becton Dickinson). 5000/seg events were analyzed. Apoptotic induction percentages were calculated (Graph‐Pad Software, San Diego, CA, USA).
# Vero kidney cell line = test: Cytotoxicity by MTT assay on healthy Vero kidney cell line; conditions: concentrations 0.00066 to 12 mM
# Procedure: (§3) Compounds 1, (S)‐2a, −4a, and ‐5a presented the lowest IC50 values of all the compounds tested (see Table 1), so it was interesting to investigate their toxicity in healthy cells.
# as §1, §2
# [2] = as above; conditions: African green monkey, Vero kidney cells (healthy), even at 12 mM concentrations (data not shown)
# Procedure: as §3, §1, §2
IC50 [1] [µM],Structure (SMILES),further results
822 ± 1350,CC(C)[C@H]1NCC(=O)NC1=O [(R)‐3b],–
49 ± 26,O=C1CN[C@@H](CO)C(=O)N1 [(S)‐11a],–
2100 ± 249,CC(O)[C@@H]1NCC(=O)NC1=O (stereo partly drawn) [(S)‐12a],Decrease in apoptotic induction at 48 h compared to the 24 h test (MDA‐MB‐231 cell line): 3%
1720 ± 85,CC(O)[C@H]1NCC(=O)NC1=O (stereo partly drawn) [(R)‐12b],–
2150 ± 202,O=C1CN[C@H](Cc2ccccc2)C(=O)N1 [(R)‐7b],–
801 ± 208,O=C1CN[C@H](CO)C(=O)N1 [(R)‐11b],–
469 ± 860,NC(=O)COc1ccc(C[C@@H]2NCC(=O)NC2=O)cc1 [(S)‐10a],–
4940 ± 733,O=C1CN[C@@H](Cc2ccc(OCc3ccccc3)cc2)C(=O)N1 [(S)‐8a],–
357 ± 190,O=C1CN[C@H](Cc2c[nH]c3ccccc23)C(=O)N1 [(R)‐14b],–
12,O=C1CN[C@@H](Cc2c[nH]c3ccccc23)C(=O)N1 [(S)‐14a],–
265,CC(C)C[C@H]1NCC(=O)NC1=O [(R)‐4b],–
5.5 ± 0.235,CC(C)C[C@@H]1NCC(=O)NC1=O [(S)‐4a],"Toxicity on Vero kidney cell line (in words) (Vero kidney cell line): did not exhibit toxicity; viability at 24 h, 12 mM [2]: 100%"
4.6 ± 0.169,C[C@@H]1NCC(=O)NC1=O [(S)‐2a],"Toxicity on Vero kidney cell line (in words) (Vero kidney cell line): did not exhibit toxicity; viability at 24 h, 12 mM [2]: 100%"
6.8 ± 0.028,CCC(C)[C@@H]1NCC(=O)NC1=O (stereo partly drawn) [(S)‐5a],"Toxicity on Vero kidney cell line (in words) (Vero kidney cell line): did not exhibit toxicity; viability at 24 h, 12 mM [2]: 100%"
21,C[C@H]1NCC(=O)NC1=O [(R)‐2b],–
4.6 ± 0.019,O=C1CNCC(=O)N1 [Compound 1],"Toxicity on Vero kidney cell line (in words) (Vero kidney cell line): did not exhibit toxicity; viability at 24 h, 12 mM [2]: 100%"
155 ± 322,O=C1CN[C@@H](Cc2ccccc2)C(=O)N1 [(S)‐7a],–
3640 ± 1220,O=C1CN[C@H](Cc2ccc(OCc3ccccc3)cc2)C(=O)N1 [(R)‐8b],–
17,CC(C)[C@@H]1NCC(=O)NC1=O [(S)‐3a],–
978 ± 96,CSCC[C@@H]1NCC(=O)NC1=O [(S)‐13a],–
1669 ± 11,O=C1CN[C@@H](Cc2ccc(O)cc2)C(=O)N1 [(S)‐9a],–
1310 ± 284,CSCC[C@H]1NCC(=O)NC1=O [(R)‐13b],–

Structure (SMILES),IC50 [1] [µM],further results
O=C1CN2CCC[C@@H]2C(=O)N1 [(R)‐6b],584 ± 1010,–
O=C1CN2CCC[C@H]2C(=O)N1 [(S)‐6a],1020 ± 167,–
